# Source: ChEMBL document CHEMBL3232845 (Bioorg Med Chem Lett, 2014)
# Key:
# [1] = target: Vascular endothelial growth factor receptor 1 (Homo sapiens) (UniProt P17948); assay: Inhibition of human Flt1 assessed as enzyme activity at 1 uM relative to control; design: scale not given: the % may be the effect or the level left
# [2] = target: Serine/threonine-protein kinase 4 (Homo sapiens) (UniProt Q13043); assay: Inhibition of human MST1 assessed as enzyme activity at 1 uM relative to control; design: scale not given: the % may be the effect or the level left
# Chain of Serine/threonine-protein kinase 4 (Homo sapiens) (Q13043 whole entry): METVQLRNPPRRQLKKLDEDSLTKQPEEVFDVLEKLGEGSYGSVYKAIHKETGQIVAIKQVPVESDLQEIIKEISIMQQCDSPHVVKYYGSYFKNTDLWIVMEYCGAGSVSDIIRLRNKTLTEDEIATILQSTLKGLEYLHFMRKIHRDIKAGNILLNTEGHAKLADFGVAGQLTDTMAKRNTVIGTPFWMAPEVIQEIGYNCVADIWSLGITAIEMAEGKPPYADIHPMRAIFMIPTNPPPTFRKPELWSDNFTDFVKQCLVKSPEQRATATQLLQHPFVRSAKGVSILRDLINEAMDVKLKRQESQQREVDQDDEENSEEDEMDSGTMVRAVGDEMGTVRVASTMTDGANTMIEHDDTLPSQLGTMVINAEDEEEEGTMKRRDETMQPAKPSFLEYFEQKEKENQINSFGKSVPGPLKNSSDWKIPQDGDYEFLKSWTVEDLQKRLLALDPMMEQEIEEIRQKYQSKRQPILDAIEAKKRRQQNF
# [3] = target: Protein kinase C zeta type (Homo sapiens) (UniProt Q05513); assay: Inhibition of human PKCzeta assessed as enzyme activity at 1 uM relative to control; design: scale not given: the % may be the effect or the level left
# [4] = target: Protein-tyrosine kinase 2-beta (Homo sapiens) (UniProt Q14289); assay: Inhibition of human FAK2 assessed as enzyme activity at 1 uM relative to control; design: scale not given: the % may be the effect or the level left
# [5] = target: Serine/threonine-protein kinase Sgk1 (Homo sapiens) (UniProt O00141); assay: Inhibition of human SGK1 assessed as enzyme activity at 1 uM relative to control; design: scale not given: the % may be the effect or the level left
# Chain of Serine/threonine-protein kinase Sgk1 (Homo sapiens) (O00141 whole entry): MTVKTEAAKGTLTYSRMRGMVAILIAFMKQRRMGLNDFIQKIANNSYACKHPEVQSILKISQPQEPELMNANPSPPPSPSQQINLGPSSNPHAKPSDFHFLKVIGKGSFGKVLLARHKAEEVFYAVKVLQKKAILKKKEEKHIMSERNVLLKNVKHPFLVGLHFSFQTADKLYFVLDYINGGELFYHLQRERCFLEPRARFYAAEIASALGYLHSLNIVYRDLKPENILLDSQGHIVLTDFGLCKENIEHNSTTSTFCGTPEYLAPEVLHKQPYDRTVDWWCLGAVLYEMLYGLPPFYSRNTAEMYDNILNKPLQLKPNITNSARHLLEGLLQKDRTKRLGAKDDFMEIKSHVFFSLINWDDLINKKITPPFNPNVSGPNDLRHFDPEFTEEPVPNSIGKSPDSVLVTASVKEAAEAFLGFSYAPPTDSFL
# [6] = target: High affinity nerve growth factor receptor (Homo sapiens) (UniProt P04629); assay: Inhibition of human TrkA assessed as enzyme activity at 1 uM relative to control; design: scale not given: the % may be the effect or the level left
# Chain of High affinity nerve growth factor receptor (Homo sapiens) (P04629 33-796 limits assumed): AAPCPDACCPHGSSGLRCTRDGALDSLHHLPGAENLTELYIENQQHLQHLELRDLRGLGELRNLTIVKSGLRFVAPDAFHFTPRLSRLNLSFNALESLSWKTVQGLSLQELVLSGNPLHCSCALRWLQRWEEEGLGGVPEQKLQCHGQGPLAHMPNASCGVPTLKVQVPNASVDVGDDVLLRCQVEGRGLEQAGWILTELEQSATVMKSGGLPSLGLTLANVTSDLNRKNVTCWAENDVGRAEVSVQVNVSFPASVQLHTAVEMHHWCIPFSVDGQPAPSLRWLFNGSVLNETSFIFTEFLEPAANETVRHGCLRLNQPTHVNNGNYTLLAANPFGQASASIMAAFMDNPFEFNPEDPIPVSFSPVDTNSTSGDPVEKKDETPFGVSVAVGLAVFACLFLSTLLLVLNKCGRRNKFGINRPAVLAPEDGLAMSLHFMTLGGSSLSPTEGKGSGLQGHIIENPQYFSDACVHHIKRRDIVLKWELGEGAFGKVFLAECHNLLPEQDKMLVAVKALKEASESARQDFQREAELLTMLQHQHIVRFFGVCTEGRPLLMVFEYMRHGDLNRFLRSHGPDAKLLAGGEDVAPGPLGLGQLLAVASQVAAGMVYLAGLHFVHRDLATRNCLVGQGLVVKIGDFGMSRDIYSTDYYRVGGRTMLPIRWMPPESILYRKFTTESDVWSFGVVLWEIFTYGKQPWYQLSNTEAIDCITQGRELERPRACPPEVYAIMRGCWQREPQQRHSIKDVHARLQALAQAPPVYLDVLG
# [7] = target: Tyrosine-protein kinase Mer (Homo sapiens) (UniProt Q12866); assay: Inhibition of human Mer assessed as enzyme activity at 1 uM relative to control; design: scale not given: the % may be the effect or the level left
# [8] = target: Calcium/calmodulin-dependent protein kinase type IV (Homo sapiens) (UniProt Q16566); assay: Inhibition of human CAMK4 assessed as enzyme activity at 1 uM relative to control; design: scale not given: the % may be the effect or the level left
# [9] = target: Ephrin type-A receptor 7 (Homo sapiens) (UniProt Q15375); assay: Inhibition of human EphA7 assessed as enzyme activity at 1 uM relative to control; design: scale not given: the % may be the effect or the level left
# Chain of Ephrin type-A receptor 7 (Homo sapiens) (Q15375 28-998 limits assumed): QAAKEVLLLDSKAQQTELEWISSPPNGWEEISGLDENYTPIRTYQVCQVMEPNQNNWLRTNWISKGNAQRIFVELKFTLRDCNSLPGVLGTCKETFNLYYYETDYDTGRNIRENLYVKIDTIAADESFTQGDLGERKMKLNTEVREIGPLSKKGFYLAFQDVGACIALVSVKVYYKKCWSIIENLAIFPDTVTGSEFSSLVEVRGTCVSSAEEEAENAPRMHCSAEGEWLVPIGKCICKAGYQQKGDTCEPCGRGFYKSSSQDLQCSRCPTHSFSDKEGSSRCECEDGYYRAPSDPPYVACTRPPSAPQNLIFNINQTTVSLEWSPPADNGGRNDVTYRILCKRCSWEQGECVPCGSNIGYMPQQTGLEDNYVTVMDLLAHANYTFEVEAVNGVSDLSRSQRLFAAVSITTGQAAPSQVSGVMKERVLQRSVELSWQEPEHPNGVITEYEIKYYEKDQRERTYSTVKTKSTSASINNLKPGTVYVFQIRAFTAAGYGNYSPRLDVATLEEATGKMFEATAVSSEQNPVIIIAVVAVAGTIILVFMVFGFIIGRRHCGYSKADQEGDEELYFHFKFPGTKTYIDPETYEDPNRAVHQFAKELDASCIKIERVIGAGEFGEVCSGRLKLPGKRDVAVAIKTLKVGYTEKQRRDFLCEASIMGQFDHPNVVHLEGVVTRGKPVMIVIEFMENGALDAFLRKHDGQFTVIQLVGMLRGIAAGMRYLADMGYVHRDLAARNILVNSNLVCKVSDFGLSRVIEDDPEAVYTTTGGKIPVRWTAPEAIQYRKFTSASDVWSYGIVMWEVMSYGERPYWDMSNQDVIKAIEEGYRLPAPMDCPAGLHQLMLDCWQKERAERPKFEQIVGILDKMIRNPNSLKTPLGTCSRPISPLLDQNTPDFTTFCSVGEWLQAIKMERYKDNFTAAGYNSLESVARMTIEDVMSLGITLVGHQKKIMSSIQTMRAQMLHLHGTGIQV
# [10] = target: Serine/threonine-protein kinase Nek2 (Homo sapiens) (UniProt P51955); assay: Inhibition of human NEK2 assessed as enzyme activity at 1 uM relative to control; design: scale not given: the % may be the effect or the level left
# [11] = target: Misshapen-like kinase 1 (Homo sapiens) (UniProt Q8N4C8); assay: Inhibition of human MINK assessed as enzyme activity at 1 uM relative to control; design: scale not given: the % may be the effect or the level left
# [12] = target: Activin receptor type-1B (Homo sapiens) (UniProt P36896); assay: Inhibition of human ALK4 assessed as enzyme activity at 1 uM relative to control; design: scale not given: the % may be the effect or the level left
# [13] = Apparent permeability of the compound from apical to basolateral direction in pig LLC-PK1 cells; assay type: ADME, cell-based, Sus scrofa
# [14] = target: LIM domain kinase 1 (Homo sapiens) (UniProt P53667); assay: Inhibition of human LIMK1 assessed as enzyme activity at 1 uM relative to control; design: scale not given: the % may be the effect or the level left
# Chain of LIM domain kinase 1 (Homo sapiens) (P53667 whole entry, looked up, the tested form may be a part): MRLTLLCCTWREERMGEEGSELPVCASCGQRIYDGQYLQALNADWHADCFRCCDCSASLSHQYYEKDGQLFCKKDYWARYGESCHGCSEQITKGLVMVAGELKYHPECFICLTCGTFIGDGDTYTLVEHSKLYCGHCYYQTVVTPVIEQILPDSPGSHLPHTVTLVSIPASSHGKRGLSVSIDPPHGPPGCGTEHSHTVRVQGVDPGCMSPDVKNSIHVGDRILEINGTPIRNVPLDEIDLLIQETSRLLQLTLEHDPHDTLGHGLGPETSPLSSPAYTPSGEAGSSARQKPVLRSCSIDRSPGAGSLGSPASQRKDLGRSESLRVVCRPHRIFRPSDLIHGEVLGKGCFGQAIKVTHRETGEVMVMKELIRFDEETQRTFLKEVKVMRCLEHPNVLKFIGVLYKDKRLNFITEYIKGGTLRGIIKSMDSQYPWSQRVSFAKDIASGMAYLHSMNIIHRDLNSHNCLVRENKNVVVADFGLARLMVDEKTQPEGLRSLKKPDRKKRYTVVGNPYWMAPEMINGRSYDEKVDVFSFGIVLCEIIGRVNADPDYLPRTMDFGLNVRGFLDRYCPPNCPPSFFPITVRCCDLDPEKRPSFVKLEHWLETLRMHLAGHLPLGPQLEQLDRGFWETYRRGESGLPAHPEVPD
# [15] = target: Testis-specific serine/threonine-protein kinase 1 (Homo sapiens) (UniProt Q9BXA7); assay: Inhibition of human TSSK1 assessed as enzyme activity at 1 uM relative to control; design: scale not given: the % may be the effect or the level left
# [16] = target: Death-associated protein kinase 1 (Homo sapiens) (UniProt P53355); assay: Inhibition of human DAPK1 assessed as enzyme activity at 1 uM relative to control; design: scale not given: the % may be the effect or the level left
# [17] = target: Serine/threonine-protein kinase Chk2 (Homo sapiens) (UniProt O96017); assay: Inhibition of human CHK2 assessed as enzyme activity at 1 uM relative to control; design: scale not given: the % may be the effect or the level left
# Chain of Serine/threonine-protein kinase Chk2 (Homo sapiens) (O96017 whole entry): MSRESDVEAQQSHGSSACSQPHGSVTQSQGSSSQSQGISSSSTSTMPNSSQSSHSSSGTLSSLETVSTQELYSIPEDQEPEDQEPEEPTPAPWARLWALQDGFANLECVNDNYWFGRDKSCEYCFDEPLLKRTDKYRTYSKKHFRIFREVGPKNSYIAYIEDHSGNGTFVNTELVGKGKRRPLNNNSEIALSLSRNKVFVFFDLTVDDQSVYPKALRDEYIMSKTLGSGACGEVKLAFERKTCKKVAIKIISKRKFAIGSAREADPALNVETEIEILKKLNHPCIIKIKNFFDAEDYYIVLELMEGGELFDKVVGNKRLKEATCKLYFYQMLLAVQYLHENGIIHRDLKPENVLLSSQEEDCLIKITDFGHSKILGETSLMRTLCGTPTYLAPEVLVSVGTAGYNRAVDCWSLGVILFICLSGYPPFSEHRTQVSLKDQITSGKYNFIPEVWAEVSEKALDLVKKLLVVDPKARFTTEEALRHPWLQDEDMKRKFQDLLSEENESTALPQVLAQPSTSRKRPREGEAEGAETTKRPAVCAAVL
# [18] = target: Serine/threonine-protein kinase PAK 4 (Homo sapiens) (UniProt O96013); assay: Inhibition of human PAK4 assessed as enzyme activity at 1 uM relative to control; design: scale not given: the % may be the effect or the level left
# [19] = target: mTOR/FKBP12A/FKBP12B (Homo sapiens) (UniProt P62942+P68106+P42345); assay: Inhibition of human mTOR/FKBP12 assessed as enzyme activity at 1 uM relative to control; assay type: protein-complex assay; design: scale not given: the % may be the effect or the level left
# [20] = target: Serine/threonine-protein kinase pim-3 (Homo sapiens) (UniProt Q86V86); assay: Inhibition of human Pim-3 assessed as enzyme activity at 1 uM relative to control; design: scale not given: the % may be the effect or the level left
# [21] = target: Ephrin type-B receptor 1 (Homo sapiens) (UniProt P54762); assay: Inhibition of human EphB1 assessed as enzyme activity at 1 uM relative to control; design: scale not given: the % may be the effect or the level left
# [22] = target: Interleukin-1 receptor-associated kinase 4 (Homo sapiens) (UniProt Q9NWZ3); assay: Inhibition of human IRAK4 assessed as enzyme activity at 1 uM relative to control; design: scale not given: the % may be the effect or the level left
# [23] = target: Tyrosine-protein kinase Blk (Homo sapiens) (UniProt P51451); assay: Inhibition of human BLK assessed as enzyme activity at 1 uM relative to control; design: scale not given: the % may be the effect or the level left
# [24] = target: Serine/threonine-protein kinase PLK2 (Homo sapiens) (UniProt Q9NYY3); assay: Inhibition of human Plk2 assessed as enzyme activity at 1 uM relative to control; design: scale not given: the % may be the effect or the level left
# Chain of Serine/threonine-protein kinase PLK2 (Homo sapiens) (Q9NYY3 whole entry, looked up): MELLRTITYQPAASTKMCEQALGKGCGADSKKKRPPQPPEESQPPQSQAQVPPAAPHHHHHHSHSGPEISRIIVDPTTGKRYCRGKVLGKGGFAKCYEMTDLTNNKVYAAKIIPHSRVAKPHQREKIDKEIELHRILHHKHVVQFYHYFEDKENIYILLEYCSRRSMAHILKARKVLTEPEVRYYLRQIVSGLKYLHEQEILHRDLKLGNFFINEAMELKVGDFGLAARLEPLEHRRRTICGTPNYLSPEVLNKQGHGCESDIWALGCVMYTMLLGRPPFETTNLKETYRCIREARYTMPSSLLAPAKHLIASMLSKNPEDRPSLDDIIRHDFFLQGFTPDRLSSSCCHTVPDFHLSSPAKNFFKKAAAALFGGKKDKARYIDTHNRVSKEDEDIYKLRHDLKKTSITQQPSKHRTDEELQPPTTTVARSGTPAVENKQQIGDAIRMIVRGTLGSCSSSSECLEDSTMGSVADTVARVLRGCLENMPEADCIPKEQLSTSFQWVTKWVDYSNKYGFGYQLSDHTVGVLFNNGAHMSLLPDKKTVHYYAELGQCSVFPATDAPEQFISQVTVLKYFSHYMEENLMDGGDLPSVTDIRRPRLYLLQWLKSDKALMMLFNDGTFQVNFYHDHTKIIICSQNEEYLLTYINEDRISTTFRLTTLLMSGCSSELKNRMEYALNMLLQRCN
# [25] = target: RAC-gamma serine/threonine-protein kinase (Homo sapiens) (UniProt Q9Y243); assay: Inhibition of human AKT3 assessed as enzyme activity at 1 uM relative to control; design: scale not given: the % may be the effect or the level left
# [26] = target: Discoidin domain-containing receptor 2 (Homo sapiens) (UniProt Q16832); assay: Inhibition of human DDR2 assessed as enzyme activity at 1 uM relative to control; design: scale not given: the % may be the effect or the level left
# [27] = target: Casein kinase I isoform gamma-2 (Homo sapiens) (UniProt P78368); assay: Inhibition of human CK1gamma2 assessed as enzyme activity at 1 uM relative to control; design: scale not given: the % may be the effect or the level left
# [28] = target: Calcium/calmodulin-dependent protein kinase type II subunit gamma (Homo sapiens) (UniProt Q13555); assay: Inhibition of human CAMK2g assessed as enzyme activity at 1 uM relative to control; design: scale not given: the % may be the effect or the level left
# [29] = target: Serine/threonine-protein kinase D2 (Homo sapiens) (UniProt Q9BZL6); assay: Inhibition of human PKD2 assessed as enzyme activity at 1 uM relative to control; design: scale not given: the % may be the effect or the level left
# [30] = target: Tyrosine-protein kinase Lyn (Homo sapiens) (UniProt P07948); assay: Inhibition of human Lyn assessed as enzyme activity at 1 uM relative to control; design: scale not given: the % may be the effect or the level left
# [31] = target: Protein kinase C eta type (Homo sapiens) (UniProt P24723); assay: Inhibition of human PKCeta assessed as enzyme activity at 1 uM relative to control; design: scale not given: the % may be the effect or the level left
# [32] = target: MAP kinase-interacting serine/threonine-protein kinase 2 (Homo sapiens) (UniProt Q9HBH9); assay: Inhibition of human MKNK2 assessed as enzyme activity at 1 uM relative to control; design: scale not given: the % may be the effect or the level left
# [33] = target: Phosphorylase b kinase gamma catalytic chain, liver/testis isoform (Homo sapiens) (UniProt P15735); assay: Inhibition of human PhKgamma2 assessed as enzyme activity at 1 uM relative to control; design: scale not given: the % may be the effect or the level left
# Chain of Phosphorylase b kinase gamma catalytic chain, liver/testis isoform (Homo sapiens) (P15735 whole entry, canonical isoform): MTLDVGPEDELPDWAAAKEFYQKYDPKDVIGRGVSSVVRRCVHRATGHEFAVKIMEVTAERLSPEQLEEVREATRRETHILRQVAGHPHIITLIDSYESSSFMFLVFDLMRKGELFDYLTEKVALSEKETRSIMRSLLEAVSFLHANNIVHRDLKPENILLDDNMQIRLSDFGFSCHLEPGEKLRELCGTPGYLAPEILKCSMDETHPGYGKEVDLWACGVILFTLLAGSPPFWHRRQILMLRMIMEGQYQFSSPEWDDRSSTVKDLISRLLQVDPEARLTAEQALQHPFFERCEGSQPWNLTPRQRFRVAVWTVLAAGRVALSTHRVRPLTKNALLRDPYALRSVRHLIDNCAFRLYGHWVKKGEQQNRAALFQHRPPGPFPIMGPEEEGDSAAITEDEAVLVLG
# [34] = target: Serine/threonine-protein kinase TAO3 (Homo sapiens) (UniProt Q9H2K8); assay: Inhibition of human TAO3 assessed as enzyme activity at 1 uM relative to control; design: scale not given: the % may be the effect or the level left
# [35] = target: Tyrosine-protein kinase Lck (Homo sapiens) (UniProt P06239); assay: Inhibition of human Lck assessed as enzyme activity at 1 uM relative to control; design: scale not given: the % may be the effect or the level left
# [36] = target: Rho-associated protein kinase 1 (Homo sapiens) (UniProt Q13464); assay: Inhibition of human ROCK-1 assessed as enzyme activity at 1 uM relative to control; design: scale not given: the % may be the effect or the level left
# [37] = Antitumor activity against human LOX cells expressing B-Raf V600E mutant xenografted in nude mouse assessed as tumor growth inhibition at 30 mg/kg qd for 4 days measured on day 5; assay type: functional; settings: read-out: TGI
# [38] = target: Tyrosine-protein kinase Fer (Homo sapiens) (UniProt P16591); assay: Inhibition of human Fer assessed as enzyme activity at 1 uM relative to control; design: scale not given: the % may be the effect or the level left
smiles,measurement,setting,value
CCCS(=O)(=O)Nc1cccc(Nc2ccc3ncn(C)c(=O)c3c2)c1C#N,Activity,[1],93.5%
same,Activity,[2],108%
same,Activity,[3],103%
same,Activity,[4],85.5%
same,Activity,[5],121%
same,Activity,[6],103%
same,Activity,[7],89.5%
same,Activity,[8],98%
same,Activity,[9],99%
same,Activity,[10],116%
same,Activity,[11],106%
same,Activity,[12],109%
same,Papp A→B,[13],> 8 ×10⁻⁶ cm/s
same,Activity,[14],85%
same,Activity,[15],98%
same,Activity,[16],102%
same,Activity,[17],100%
same,Activity,[18],92%
same,Activity,[19],104%
same,Activity,[20],97%
same,Activity,[21],101%
same,Activity,[22],106%
same,Activity,[23],102%
same,Activity,[24],102%
same,Activity,[25],109%
same,Activity,[26],100%
same,Activity,[27],99.5%
same,Activity,[28],104%
same,Activity,[29],95.5%
same,Activity,[30],98%
same,Activity,[31],101%
same,Activity,[32],106%
same,Activity,[33],112%
same,Activity,[34],100%
same,Activity,[35],87%
same,Activity,[36],108%
same,inhibition in vivo at 30 mg/kg,[37],95%
same,Activity,[38],114%
